Literature values as cited in patent US20220331268A1, “TREATMENT OF SKIN DISORDERS WITH TOPICAL COMBINATION COMPOSITIONS COMPRISING TAPINAROF AND AN ADDITIONAL AHR ACTIVATOR” (Sol-Gel Technologies Ltd., priority 2019, published 2022).

What was measured:
[1] = 1% tapinarof arm compared with 0.5% arm or vehicle
[2] = tested on: interleukin-6 and interleukin-17A; settings: mouse models and in vitro human skin studies
[3] = psoriasis treatment, single drug; placebo 20.2%
[4] = across all groups treated

Structure (SMILES) | efficacy [1] | onset of action [1] | effect on proinflammatory mediators including interleukin-6 and interleukin-17A [2] | skin barrier function [2] | adverse effects [3] [%] | contact dermatitis (side-effect, among most common) [4] [%] | folliculitis (side-effect) [4] [%]
CC(C)c1c(O)cc(/C=C/c2ccccc2)cc1O [Tapinarof, 3,5-dihydroxy-4-isopropyl-trans-stilbene] | higher efficacy | quicker onset of action | inhibit | enhance skin barrier function | 44.5 | > 5 | 9
C=C1/C(=C\C=C2/CCC[C@]3(C)[C@@H]([C@H](C)/C=C/[C@@H](O)C4CC4)CC[C@@H]23)C[C@@H](O)C[C@@H]1O [calcipotriene] | – | – | – | – | 19.5 | – | –
